The text below walks through data of the supplement of paper PMC11424490.

Molecules are shown by their SMILES. Structures can show the parent of a compound that is named as a salt.

One assay relates to NCI-H2122. As to the kind of experiment: fitted bottom plateau of viability curve, % of DMSO control; higher = less maximal inhibition; extreme values may be limits of the assay. As for the experimental part:
(§1)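 CellTiter-Glo proliferation assay in KRAS G12C mutant NCI-H2122 (72 h), SW837 (144 h) and NCI-H358 cells in 384-well plates. Monotherapy dose response was fitted with a four-parameter curve after normalisation to DMSO controls (% of control, PoC). IC50 is the relative IC50, averaged over replicates. Bottom is the fitted lower plateau in %PoC; Max.Conc. is the top dose tested.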

The next assay concerns SW837. Described as above. The procedure:
as §1

Regarding `C[C@H](Cc1ccc(O)c(O)c1)[C@@H](C)Cc1ccc(O)c(O)c1` [Masoprocol] (top concentration tested 9999.8 nM), the “fitted bottom plateau of viability curve” value in the assay with NCI-H2122 worked out at 71.4%; with SW837 it was 86.2%.
As for `NC(=O)Nc1cc(-c2cccc(F)c2)sc1C(=O)N[C@H]1CCCNC1` [AZD-7762] (top concentration tested 99.882 nM), the “fitted bottom plateau of viability curve” value in the assay on NCI-H2122 came out at 62.8%; in the assay on SW837 it was 89.7%.
For `Cc1ncc([N+](=O)[O-])n1CCOC(=O)NC(Nc1ncccn1)C(Cl)(Cl)Cl` (centres undefined) [Apcin] (top concentration tested 10000 nM) the same measures were 83.2% and 95.3%.
Consider `O=C(O)c1nn(Cc2ccc(Cl)cc2Cl)c2ccccc12` [Lonidamine] (top concentration tested 10000 nM), for which the “fitted bottom plateau of viability curve” value with NCI-H2122 was determined as 77.4%; in the assay on SW837, 86.4%.
As to `CC(C)(C(=O)NCC(F)(F)C(F)(F)F)C(=O)N[C@@H]1C(=O)Nc2ccccc2-c2ccccc21` (top concentration tested 9999.9 nM), the “fitted bottom plateau of viability curve” value in the assay on NCI-H2122 turned out to be 77.8%; with SW837, 98.6%.
For `CNC(=O)c1cc(Oc2ccc(NC(=O)Nc3ccc(Cl)c(C(F)(F)F)c3)cc2)ccn1` [Sorafenib] (top concentration tested 999.95 nM) the same measures were 84.3% and 92.6%.
For `CC(C)(C)c1cc(NC(=O)Nc2ccc(-c3cn4c(n3)sc3cc(OCCN5CCOCC5)ccc34)cc2)no1` [Quizartinib] (top concentration tested 1000.1 nM), in that order: 79.3% and 94.1%.
On to `NC(=O)c1ccc(-c2nc(-c3ccccn3)c(-c3ccc4c(c3)OCO4)[nH]2)cc1` (top concentration tested 9999.9 nM), for which the entries for the “fitted bottom plateau of viability curve” value with NCI-H2122 and in the assay with SW837 were 96.2% and 96.5%, respectively.
For `CNC(=O)c1ccc(N2C(=S)N(c3ccc(C#N)c(C(F)(F)F)c3)C(=O)C2(C)C)cc1F` [Enzalutamide] (top concentration tested 10000 nM), in that order: 83.9% and 93.1%.
For `c1ccc(-c2nn3c(c2-c2ccnc4cc(OCCN5CCOCC5)ccc24)CCC3)nc1` (top concentration tested 9999.9 nM), in that order: 78.1% and 90.3%.
Consider `CC(O)(CS(=O)(=O)c1ccc(F)cc1)C(=O)Nc1ccc(C#N)c(C(F)(F)F)c1` (centres undefined) [Bicalutamide] (top concentration tested 10000 nM), for which the “fitted bottom plateau of viability curve” value with NCI-H2122 worked out at 71.7%; in the assay on SW837, 77.3%.
For `CN[C@@H](C)C(=O)N[C@H](C(=O)N1CCC[C@H]1c1nc(C(=O)c2ccc(F)cc2)cs1)C1CCCCC1` [LCL161] (top concentration tested 10000 nM) the same measures were 69.3% and 86.1%.
`Nc1nc(F)nc2c1ncn2[C@@H]1O[C@H](CO)[C@@H](O)[C@@H]1O` [Fludarabine] (top concentration tested 9999.9 nM): the results for the “fitted bottom plateau of viability curve” value with NCI-H2122 and with SW837 were 71% and 59.4%, respectively.
In the case of `CCN1CCN(c2ccc(Nc3cc(N(C)C(=O)Nc4c(Cl)c(OC)cc(OC)c4Cl)ncn3)cc2)CC1` [BGJ398] (top concentration tested 1000 nM), the results for the “fitted bottom plateau of viability curve” value in the assay with NCI-H2122 and in the assay with SW837 were 78.2% and 90.4%, respectively.
Turning to `C=C(c1ccc(C(=O)O)cc1)c1cc2c(cc1C)C(C)(C)CCC2(C)C` [Bexarotene] (top concentration tested 10000 nM), the “fitted bottom plateau of viability curve” value with NCI-H2122 came to 89.9%; with SW837, 96.9%.
Turning to `COc1cc2c(Oc3ccc4[nH]c(C)cc4c3F)ncnc2cc1OCCCN1CCCC1` [Cediranib] (top concentration tested 100.11 nM), the “fitted bottom plateau of viability curve” value was 70% in the assay on NCI-H2122 and 90.6% with SW837.
Consider `O=C(O)C1(C(=O)O)CCC1.[NH2-].[NH2-].[Pt+2]` [Carboplatin] (top concentration tested 10000 nM), for which the “fitted bottom plateau of viability curve” value worked out at 63.4% in the assay with NCI-H2122 and 88.3% with SW837.
For `Cc1ccc(NC(=O)c2ccc(CN3CCN(C)CC3)cc2)cc1Nc1nc(-c2cccnc2)cs1` [Masitinib] (top concentration tested 1000.1 nM), in that order: 79.5% and 95.6%.
For `CCCCCOC(=O)Nc1nc(=O)n([C@@H]2O[C@H](C)[C@@H](O)[C@H]2O)cc1F` [Capecitabin] (top concentration tested 50000 nM) the same measures were 75.7% and 101%.
For `CN(C)C(=N)NC(=N)N` [Metformin] (top concentration tested 50000 nM) the same measures were 76.5% and 97.5%.
In the case of `CCCC(CCC)C(=O)O` [Valproic acid] (top concentration tested 10000 nM), the “fitted bottom plateau of viability curve” value turned out to be 72.1% in the assay on NCI-H2122 and 92.8% in the assay with SW837.
For `C[C@]12CC[C@@H]3c4ccc(O)cc4C[C@@H](CCCCCCCCC[S+]([O-])CCCC(F)(F)C(F)(F)F)[C@H]3[C@@H]1CC[C@@H]2O` (some centres undefined) [Fulvestrant] (top concentration tested 1000 nM) the same measures were 75.9% and 91.1%.
Take `CCCS(=O)(=O)Nc1ccc(F)c(C(=O)c2c[nH]c3ncc(Cl)cc23)c1F` [PLX4720] (top concentration tested 10000 nM): the figures for the “fitted bottom plateau of viability curve” value in the assay on NCI-H2122 and in the assay on SW837 were 73.6% and 101%, respectively.
For `N[C@H]1CC[C@H](N[C@@H]2C[C@H]2c2ccccc2)CC1` [ORY-1001] (top concentration tested 49.848 nM) the same measures were 68.1% and 90.5%.
For `COc1ccc(Cn2ccc3ccc(C(=O)NO)cc32)cc1` (top concentration tested 10000 nM) the same measures were 67.3% and 99.9%.
For `Cc1ccc(Nc2nccc(N(C)c3ccc4c(C)n(C)nc4c3)n2)cc1S(N)(=O)=O` [Pazopanib] (top concentration tested 10000 nM), the “fitted bottom plateau of viability curve” value in the assay on NCI-H2122 was found to be 80.9%; in the assay with SW837, 91.9%.
For `C[C@H](CS)C(=O)N1CCC[C@H]1C(=O)O` [Captopril] (top concentration tested 1000 nM) the same measures were 65.1% and 91.7%.
Consider `C[C@]1(c2nc3c(C(N)=O)cccc3[nH]2)CCCN1` [Veliparib] (top concentration tested 10000 nM), for which the “fitted bottom plateau of viability curve” value in the assay with NCI-H2122 is 93.6%; in the assay with SW837, 102%.
Take `CS(=O)(=O)c1ccc(C(=O)Nc2ccc(Cl)c(-c3ccccn3)c2)c(Cl)c1` [Vismodegib] (top concentration tested 10000 nM): the results for the “fitted bottom plateau of viability curve” value in the assay with NCI-H2122 and in the assay with SW837 were 91.1% and 103%, respectively.
For `CC(C)(C)c1nc(-c2cccc(NS(=O)(=O)c3c(F)cccc3F)c2F)c(-c2ccnc(N)n2)s1` [Dabrafenib] (top concentration tested 1000.1 nM) the same measures were 73.8% and 93.1%.
In the case of `C[C@@H]1CCN(C(=O)CC#N)C[C@@H]1N(C)c1ncnc2[nH]ccc12` [Tofacitinib citrate] (top concentration tested 10000 nM), the “fitted bottom plateau of viability curve” value came out at 63% in the assay with NCI-H2122 and 99% in the assay on SW837.
Consider `Cc1ccc(NC(=O)c2ccc(CN3CCN(C)CC3)cc2)cc1Nc1nccc(-c2cccnc2)n1` [Imatinib] (top concentration tested 1000 nM), for which the “fitted bottom plateau of viability curve” value with NCI-H2122 worked out at 71%; in the assay with SW837 it was 95.9%.
For `O=C(O)CCCCC(CCSCc1ccccc1)SCc1ccccc1` (centres undefined) [CPI-613] (top concentration tested 10000 nM), the results for the “fitted bottom plateau of viability curve” value with NCI-H2122 and in the assay on SW837 were 93.6% and 89.5%, respectively.
For `N.N.[Cl][Pt][Cl]` [Cisplatin] (top concentration tested 10000 nM), in that order: 75.2% and 88.2%.
As for `CN1CCN(c2ccc(-c3cccc(CN4CCOCC4)c3)cc2NC(=O)c2c[nH]c(=O)cc2C(F)(F)F)CC1` [OICR-9429] (top concentration tested 10000 nM), the results for the “fitted bottom plateau of viability curve” value with NCI-H2122 and in the assay with SW837 were 62.6% and 95.4%, respectively.
For `C[C@@H]1C[C@H]2[C@@H]3CCC4=CC(=O)C=C[C@]4(C)[C@@]3(F)[C@@H](O)C[C@]2(C)[C@@]1(O)C(=O)CO` [Dexamethasone] (top concentration tested 10000 nM), in that order: 58.2% and 82%.
In the case of `CC1=C(/C=C/C(C)=C/C=C/C(C)=C/C(=O)O)C(C)(C)CCC1` [Tretinoin] (top concentration tested 10000 nM), the “fitted bottom plateau of viability curve” value came to 78.8% in the assay on NCI-H2122 and 105% in the assay on SW837.
